Assay results: PMC9600172, “N-Succinyltransferase Encoded by a Cryptic Siderophore Biosynthesis Gene Cluster in Streptomyces Modifies Structurally Distinct Antibiotics” (mBio, 2022)
In brackets after ≈: the same amount, converted by molar mass. Like-named read-outs stand apart in the source and are kept apart here.

Key:
Set-up in all cases: Broth microdilution MIC following CLSI protocol, bacterial growth inhibition, at Medina Foundation
E. faeciumVS [1] = test system: T1, E. faeciumVS; experiment: organism not typed
T1 construct: VS (vancomycin-susceptible)
Description: (§1) Testing of antimicrobial activities of desertomycin A and X was done by disk diffusion assay using Bacillus subtilis 164, Escherichia coli DH5a, and Saccharomyces cerevisiae BY4742 as test organisms. […] In vitro susceptibility for desertomycin A was determined at Medina Foundation (Granada, Spain) by the broth microdilution method following the Clinical and Laboratory Standards Institute protocol ([34]) using bacterial strains from the company’s strain collection (Table S4). […] In order to properly assess antibiotic activity of desertomycin A, it was tested, along with some clinically relevant antibiotics, on a panel of Gram-positive and Gram-negative bacteria using the broth microdilution method. […] This can be explained by different physiological conditions of bacterial cultures on the solid agar medium (initial disk assay) and in [compound left out] cultures (CLSI method).

E. faeciumVR [2] = test system: T2, E. faeciumVR; experiment: organism not typed
T2 construct: VR (vancomycin-resistant)
Description: as §1

[3] = test system: T3, Staphylococcus aureus MRSA MB5393; experiment: microbe, parasite or virus in culture
T3 construct: MB5393 (MRSA)
Description: as §1

[4] = test system: T4, Staphylococcus aureus MSSA MB2865; experiment: microbe, parasite or virus in culture
T4 construct: MB2865 (MSSA)
Description: as §1

S. mutans ATCC25175 = test system: T5, S. mutans ATCC25175; experiment: microbe, parasite or virus in culture; details: Streptococcus mutans
T5 construct: ATCC 25175

[5] = test system: T3, Staphylococcus aureus MRSA MB5393; experiment: microbe, parasite or virus in culture; remark: listed apart in the source
Description: as §1, with “liquid” for “[compound left out]”

[6] = test system: T4, Staphylococcus aureus MSSA MB2865; experiment: microbe, parasite or virus in culture; remark: listed apart in the source
Description: as §1, with “liquid” for “[compound left out]”

E. faeciumVS [7] = test system: T1, E. faeciumVS; experiment: organism not typed; remark: listed apart in the source
Description: as §1, with “liquid” for “[compound left out]”

E. faeciumVR [8] = test system: T2, E. faeciumVR; experiment: organism not typed; remark: listed apart in the source
Description: as §1, with “liquid” for “[compound left out]”

Compound `C[C@H]1[C@H](NC(=O)/C(=N\OC(C)(C)C(=O)O)c2csc(N)n2)C(=O)N1S(=O)(=O)O` [Aztreonam] has an MIC (E. faeciumVS [1]) greater than 128 µg/mL, an MIC (E. faeciumVR [2]) greater than 128 µg/mL and an MIC [3] greater than 128 µg/mL. It also gave an MIC [4] greater than 128 µg/mL.
Compound `O=C(O)c1cn(C2CC2)c2cc(N3CCNCC3)c(F)cc2c1=O` [Ciprofloxacin] has an MIC (E. faeciumVS [1]) greater than 128 µg/mL, an MIC (E. faeciumVR [2]) of 16 µg/mL (≈ 48.3 µM) and an MIC [3] of 0.5 µg/mL (≈ 1.51 µM). For the same compound, the MIC [4] was less than 0.25 µg/mL.
For `CC1=CCCC(C)C(O)C(C)C(O)CCC=CC(C)C(O)C=CC(C)C(O)C(C)=CC(O[C@H]2O[C@H](CO)[C@@H](O)[C@H](O)[C@@H]2O)C(O)CC(O)CC(O)CC(O)C(C)C(O)C(C)C(O)CC(O)CC(O)C=CCC(C(C)C(O)CCCN)OC1=O` (stereo partly shown) [Desertomycin A], the MIC (S. mutans ATCC25175) was 32 µg/mL (≈ 26.8 µM), the MIC (E. faeciumVS [1]) was 64 µg/mL (≈ 53.7 µM) and the MIC (E. faeciumVR [2]) was 128 µg/mL (≈ 107 µM). It also gave an MIC [3] of 64 µg/mL (≈ 53.7 µM) and an MIC [4] of 32 µg/mL (≈ 26.8 µM).
`CNC(C)[C@@H]1CC[C@@H](N)[C@@H](O[C@H]2[C@H](O)[C@@H](O[C@H]3OC[C@](C)(O)[C@H](NC)[C@H]3O)[C@H](N)C[C@@H]2N)O1` (stereo partly shown) [Gentamicin] gave an MIC [5] of less than 0.25 µg/mL, an MIC [6] of 1 µg/mL (≈ 2.09 µM) and an MIC (E. faeciumVS [7]) greater than 128 µg/mL. It also gave an MIC (E. faeciumVR [8]) of 32 µg/mL (≈ 67 µM).
`C[C@@H](O)[C@H]1C(=O)N2C(C(=O)O)=C(SCCNC=N)C[C@H]12` [Imipenem] showed an MIC (E. faeciumVS [1]) greater than 128 µg/mL, an MIC (E. faeciumVR [2]) greater than 128 µg/mL and an MIC [3] of 8 µg/mL (≈ 26.7 µM). The MIC [4] was less than 0.25 µg/mL.
`C[C@@H](O)[C@H]1C(=O)N2C(C(=O)O)=C(S[C@@H]3CN[C@H](C(=O)N(C)C)C3)[C@H](C)[C@H]12` [Meropenem] was tested, and the MIC (E. faeciumVS [1]) was greater than 128 µg/mL, the MIC (E. faeciumVR [2]) was greater than 128 µg/mL and the MIC [3] was 8 µg/mL (≈ 20.9 µM). It also gave an MIC [4] of less than 0.25 µg/mL.
`CC1(C)S[C@@H]2[C@H](NC(=O)Cc3ccccc3)C(=O)N2[C@H]1C(=O)O` [Penicillin G] showed an MIC (E. faeciumVS [1]) greater than 128 µg/mL, an MIC (E. faeciumVR [2]) greater than 128 µg/mL and an MIC [3] of 16 µg/mL (≈ 47.8 µM). For the same compound, the MIC [4] was 16 µg/mL (≈ 47.8 µM).
In the case of `CO[C@H]1/C=C/O[C@@]2(C)Oc3c(C)c(O)c4c(O)c(c(/C=N/N5CCN(C)CC5)c(O)c4c3C2=O)NC(=O)/C(C)=C\C=C\[C@H](C)[C@H](O)[C@@H](C)[C@@H](O)[C@@H](C)[C@H](OC(C)=O)[C@@H]1C` [Rifampicin], the MIC (E. faeciumVS [1]) is reported as 8 µg/mL (≈ 9.72 µM), the MIC (E. faeciumVR [2]) is reported as 16 µg/mL (≈ 19.4 µM) and the MIC [3] is reported as 0.5 µg/mL (≈ 0.608 µM). It also gave an MIC [4] of 0.5 µg/mL (≈ 0.608 µM).
For `CN[C@H](CC(C)C)C(=O)N[C@H]1C(=O)N[C@@H](CC(N)=O)C(=O)N[C@H]2C(=O)N[C@H]3C(=O)N[C@H](C(=O)N[C@H](C(=O)O)c4cc(O)cc(O)c4-c4cc3ccc4O)[C@H](O)c3ccc(c(Cl)c3)Oc3cc2cc(c3O[C@@H]2O[C@H](CO)[C@@H](O)[C@H](O)[C@H]2O[C@H]2C[C@](C)(N)[C@H](O)[C@H](C)O2)Oc2ccc(cc2Cl)[C@H]1O` [Vancomycin], the MIC (E. faeciumVS [1]) was 16 µg/mL (≈ 11 µM), the MIC (E. faeciumVR [2]) was greater than 128 µg/mL and the MIC [3] was 8 µg/mL (≈ 5.52 µM). For the same compound, the MIC [4] was 2 µg/mL (≈ 1.38 µM).
